From patent publication US10501800B2, “Breast cancer prognosis” (Regents of the University of Minnesota, priority 2012, dated 2019)
Entries after “also recorded” stand apart in the source; their conditions may differ.

Columns and labels:
[1] = test system: BT-474 cells; experiment: MTT proliferation assay in BT-474 cells; format: cell-based, human; conditions: MTT assays over six days in vitro; data not shown
Experimental: Cell proliferation was measured using MTT assays (3-[4,5-dimethylthiazol-2-yl]-2,5-diphenyltetrazolium bromide, Sigma catalog #M2128). In 24-well plates, 1×10^4 cells/well were plated in cMEM (inducible PR expression was induced with AP21967 (10^−9 M) for 2 days), cells were washed and steroid starved in modified IMEM supplemented with 5% dextran-coated charcoal-treated (DCC) FBS for 1 day before the addition of R5020 (10^−8 M). At days 0, 2, 4, 6, cell proliferation was determined by adding 60 ul MTT (5 mg/ml) to each 0.5 ml cell culture well for 3 hours, medium was carefully removed and solublization solution (90% v/v DMSO/PBS) was added to lyse the cells. Lysate absorbance (650 and 570 nm) was measured using a plate reader. 650 nm measurements were subtracted from 570 nm measurements and sample means were normalized to day zero.

[2] = test system: PR target genes in T47D cells expressing WT PR, SUMO-deficient PR (KR) or empty vector; experiment: Gene expression profiling (Illumina HT-12v4) of T47D cell lines treated with progesterone or antiprogestins; format: cell-based, human
Experimental: T47D cells stably expressing pIRES-neo3 empty vector, WT or KR PR were serum starved in modified IMEM (Gibco, catalog #A10488) for 1 day, treated with R5020 (10^−8 M) or vehicle control for 6 h before RNA extraction using a RNeasy kit (QIAgen, catalog #74104). Six h of progestin treatment allowed for substantial PR-dependent gene expression as compared to prior studies (Jacobsen et al., 2005; Richer et al., 2002). DNase I treated (QIAgen, catalog #79254) RNA samples from duplicate experiments were prepared for expression analysis using the Illumina HT-12v4 bead chip platform according to manufacture's protocols. Data were analyzed within R software using the Bioconductor (Gentleman et al., 2004) package called lumi where raw intensities were log2 transformed and quantile normalized. Differentially expressed genes were analyzed using the limma package, where empirical Bayes was used to better estimate the variance of the genes. Gene expression data presented contain log2 normalized intensities and biological comparisons presented (e.g. R5020/vehicle) contain log2 fold change with the Benjamini and Hochberg (BH) adjusted P value (Benjamini and Hochberg, 1995). To generate the heat map in FIG. 1C, unsupervised hierarchical clustering of genes was carried out using heatmap. 2 function in the R package gplots. Clustering was performed using Euclidean distance and complete linkage. Rows were scaled to have mean zero and standard deviation equal to one.
Gene expression profiles in T47D cell lines treated with antiprogestins were obtained using identical methods as described above, except for these notable differences. After serum starvation, cells stably expressing empty vector, WT, or KR PR were treated for 6 hours under one of eight possible conditions: (1) ethanol (vehicle control), (2) progesterone (10^−8 M), (3) RU486 (10^−7 M), (4) aglepristone (10^−7 M), (5) onapristone (10^−7 M), (6) RU486 (10^−7 M) plus progesterone (10^−8 M), (7) aglepristone (10^−7 M) plus progesterone (10^−8 M), or (8) onapristone (10^−7 M) plus progesterone (10^−8 M). Gene expression levels were measured, normalized, analyzed, and heat maps were generated using the methods described above.
Raw microarray data from two independent microarray experiments (both performed using the Illumina HT-12v4 platform described above) were combined and normalized together within R software using the Bioconductor (Gentleman et al., 2004) package called lumi where raw intensities were log 2 transformed and quantile normalized.
Sample Sizes & Composition: For the first analysis, two KR cell replicates were used that had been stimulated with R5020 a synthetic progestin in the first experiment and three KR cell replicates that had been stimulated with progesterone in the second experiment. The same was accomplished regarding the corresponding WT cell replicates. Pertaining to the first analysis, therefore, a sample size of n=5 was used for each of the two groups (KR & WT). Regarding the second analysis, we used three KR cell replicates that had been co-treated with progesterone plus onapristone in the second experiment; and we used three WT cell replicates that had been co-treated with progesterone plus onapristone also in the second experiment (n=3 for each of the two groups). Regarding the third analysis, we used three KR cell replicates that had been co-treated with progesterone plus RU486 in the second experiment; and we used three WT cell replicates that had been co-treated with progesterone plus RU486 also in the second experiment (n=3 for each of the two groups). Regarding the fourth analysis, three KR cell replicates was used that had been co-treated with progesterone plus onapristone; and three WT cell replicates were used that had been treated with vehicle control (ethanol) (n=3 for each of the two groups). […]

[3] = test system: PR target genes (MSX2, RGS2, MAP1A, PDK4) in MCF-7 cells; experiment: RT-qPCR of PR target genes in MCF-7 cells stably expressing WT or KR PR; format: cell-based, human; conditions: R5020 10^−8 M plus RU486 10^−7 M, 6 h
[4] = test system: PR target genes (CHN2, RGS2, ACOT6) in BT-474 human breast cancer cells; experiment: RT-qPCR of PR target genes in BT-474 cells, with or without MEK inhibitor; format: cell-based; conditions: R5020 10^−8 M plus RU486 10^−7 M, 6 h
Experimental: For reverse transcription quantitative polymerase chain reaction (RT-qPCR) assays, 5×10^5 cells/well were plated in 6-well dishes, serum starved in modified IMEM for 1 day before treatments (see individual figures). RNA was extracted using TriPure reagent (Roche, catalog #11667157001) and cDNA was created using the Transcriptor cDNA first-strand cDNA synthesis kit (Roche, catalog #04897030001). Relative expression levels were determined by qPCR assays performed on a Roche LightCycler II using SYBR green master-mix (Roche, catalog #04887352001). Target gene quantification levels were normalized to the expression of standard housekeeper genes: TBP, ACTB, and/or GAPDH. For cells expressing inducible PR, the protocol was the same as above, except prior to ligand treatments, the cells were induced with AP21967 (10^−9 M) for 2 d.
For experiments using MEK inhibitors, BT-474 cells were plated in […] dishes at 5×10^5 cells/well. One day later, the cells were washed and serum starved in modified IMEM for 1d. These cells were pre-treated with the MEK inhibitor U0126 (5 uM, EMD Chemicals, catalog #662005) for 30 min R5020 (10^−8 M) and/or RU486 (10^−7 M) was then added to cell culture wells for 6 h before RNA/protein isolation and RT-qPCR/western blotting was performed, as described above.

[5] = test system: breast cancer; conditions: in vivo; cited from earlier work
[6] = test system: BT-474 tumor; conditions: xenograft models; cited from earlier work

## CC#C[C@]1(O)CC[C@H]2[C@@H]3CCC4=CC(=O)CCC4=C3[C@@H](c3ccc(N(C)C)cc3)C[C@@]21C [RU486, (10S,11S,14S,15S,17R)-17-[4-(dimethylamino)phenyl]-14-hydroxy-15-methyl-14-(prop-1-yn-1-yl)tetracyclo[8.7.0.0^ {2,7}.0^{11,15}]heptadeca-1,6-dien-5-one]
[1]
  BT-474 cell proliferation: significantly blocks
[2]; T47D cells expressing SUMO-deficient PR (KR), antiprogestin 10^−7 M alone or plus progesterone 10^−8 M, 6 h
  expression of progesterone-regulated PR target genes: caused many PR target genes to become upregulated
[2]; both cell lines co-treated with progesterone plus the antiprogestin
  number of genes significantly differentially expressed between KR and WT cells: 7 genes
[2]; both cell lines co-treated with progesterone plus the antiprogestin, with the exception of one gene (CDH10)
  significant differential expression of the 15 biomarker genes between KR and WT cells: completely annulled
[2]; cells expressing hyperactive / SUMO-deficient PR (KR)
  agonistic activity: substantial agonistic activity; also recorded: agonistic properties
[3]
  R5020-induced mRNA expression of MSX2, RGS2, MAP1A and PDK4: completely abolished
[4]
  R5020-induced expression of CHN2, RGS2 and ACOT6: entirely blocked
[5]
  outcome of phase II clinical trials as a breast cancer treatment: unsuccessful
[6]
  BT-474 tumor growth: dramatically inhibits
